Test results reported in ChEMBL document CHEMBL4507319 (2021).

Assays:
Details in all cases: Compound concentration 1000.0 nM
[1] = molecular target: Receptor-interacting serine/threonine-protein kinase 1 (Homo sapiens) (UniProt Q13546)
[2] = molecular target: Mitogen-activated protein kinase 3 (Homo sapiens) (UniProt P27361)
[3] = molecular target: Ribosomal protein S6 kinase alpha-6 (Homo sapiens) (UniProt Q9UK32)
[4] = molecular target: T1, Testis-specific serine/threonine-protein kinase 3 (Homo sapiens) (UniProt Q96PN8)
T1 sequence (whole entry): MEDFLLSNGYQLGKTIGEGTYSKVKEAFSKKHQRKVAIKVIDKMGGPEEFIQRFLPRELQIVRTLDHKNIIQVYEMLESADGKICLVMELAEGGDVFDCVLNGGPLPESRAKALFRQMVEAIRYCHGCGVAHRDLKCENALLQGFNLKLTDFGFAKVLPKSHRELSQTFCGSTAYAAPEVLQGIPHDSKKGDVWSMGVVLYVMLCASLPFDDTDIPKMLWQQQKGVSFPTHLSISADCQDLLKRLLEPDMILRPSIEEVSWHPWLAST

[5] = molecular target: T2, Serine/threonine-protein kinase 17B (Homo sapiens) (UniProt O94768)
T2 sequence (whole entry): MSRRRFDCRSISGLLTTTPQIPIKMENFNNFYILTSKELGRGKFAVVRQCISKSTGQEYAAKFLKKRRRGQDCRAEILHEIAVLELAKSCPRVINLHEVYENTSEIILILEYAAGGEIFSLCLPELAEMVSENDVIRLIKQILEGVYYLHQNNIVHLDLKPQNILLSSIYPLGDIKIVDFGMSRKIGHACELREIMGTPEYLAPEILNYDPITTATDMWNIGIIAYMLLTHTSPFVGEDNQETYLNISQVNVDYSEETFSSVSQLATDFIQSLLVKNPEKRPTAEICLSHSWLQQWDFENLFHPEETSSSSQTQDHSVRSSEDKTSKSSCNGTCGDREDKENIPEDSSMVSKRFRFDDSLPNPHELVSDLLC

[6] = molecular target: Mitogen-activated protein kinase kinase kinase 20 (Homo sapiens) (UniProt Q9NYL2)
[7] = molecular target: T3, Tyrosine-protein kinase ZAP-70 (Homo sapiens) (UniProt P43403)
T3 sequence (whole entry): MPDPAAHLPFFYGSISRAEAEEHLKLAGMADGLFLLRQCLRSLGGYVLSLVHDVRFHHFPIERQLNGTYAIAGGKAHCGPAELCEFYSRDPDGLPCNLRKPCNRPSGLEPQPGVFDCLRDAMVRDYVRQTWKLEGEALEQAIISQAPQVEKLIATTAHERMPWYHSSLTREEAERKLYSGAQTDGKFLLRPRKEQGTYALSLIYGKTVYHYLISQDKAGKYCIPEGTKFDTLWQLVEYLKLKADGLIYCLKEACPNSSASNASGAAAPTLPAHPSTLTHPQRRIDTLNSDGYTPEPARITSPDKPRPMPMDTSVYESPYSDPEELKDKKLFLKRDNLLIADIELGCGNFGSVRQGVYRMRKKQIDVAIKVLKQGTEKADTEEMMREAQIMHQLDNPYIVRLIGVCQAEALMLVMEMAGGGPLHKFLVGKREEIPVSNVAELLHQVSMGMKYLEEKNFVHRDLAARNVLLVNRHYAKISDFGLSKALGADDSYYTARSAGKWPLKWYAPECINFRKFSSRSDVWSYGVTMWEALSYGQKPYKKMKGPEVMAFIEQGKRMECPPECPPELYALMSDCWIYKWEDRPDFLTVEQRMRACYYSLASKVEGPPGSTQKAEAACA

[8] = molecular target: Ribosomal protein S6 kinase beta-1 (Homo sapiens) (UniProt P23443)
[9] = molecular target: RAC-gamma serine/threonine-protein kinase (Homo sapiens) (UniProt Q9Y243)
[10] = molecular target: Ribosomal protein S6 kinase alpha-5 (Homo sapiens, UniProt O75582)
[11] = molecular target: Serine/threonine-protein kinase SIK3 (Homo sapiens) (UniProt Q9Y2K2)
[12] = molecular target: Serine/threonine-protein kinase 32A (Homo sapiens) (UniProt Q8WU08)
[13] = molecular target: T4, Serine/threonine-protein kinase TAO3 (Homo sapiens) (UniProt Q9H2K8)
T4 sequence (whole entry): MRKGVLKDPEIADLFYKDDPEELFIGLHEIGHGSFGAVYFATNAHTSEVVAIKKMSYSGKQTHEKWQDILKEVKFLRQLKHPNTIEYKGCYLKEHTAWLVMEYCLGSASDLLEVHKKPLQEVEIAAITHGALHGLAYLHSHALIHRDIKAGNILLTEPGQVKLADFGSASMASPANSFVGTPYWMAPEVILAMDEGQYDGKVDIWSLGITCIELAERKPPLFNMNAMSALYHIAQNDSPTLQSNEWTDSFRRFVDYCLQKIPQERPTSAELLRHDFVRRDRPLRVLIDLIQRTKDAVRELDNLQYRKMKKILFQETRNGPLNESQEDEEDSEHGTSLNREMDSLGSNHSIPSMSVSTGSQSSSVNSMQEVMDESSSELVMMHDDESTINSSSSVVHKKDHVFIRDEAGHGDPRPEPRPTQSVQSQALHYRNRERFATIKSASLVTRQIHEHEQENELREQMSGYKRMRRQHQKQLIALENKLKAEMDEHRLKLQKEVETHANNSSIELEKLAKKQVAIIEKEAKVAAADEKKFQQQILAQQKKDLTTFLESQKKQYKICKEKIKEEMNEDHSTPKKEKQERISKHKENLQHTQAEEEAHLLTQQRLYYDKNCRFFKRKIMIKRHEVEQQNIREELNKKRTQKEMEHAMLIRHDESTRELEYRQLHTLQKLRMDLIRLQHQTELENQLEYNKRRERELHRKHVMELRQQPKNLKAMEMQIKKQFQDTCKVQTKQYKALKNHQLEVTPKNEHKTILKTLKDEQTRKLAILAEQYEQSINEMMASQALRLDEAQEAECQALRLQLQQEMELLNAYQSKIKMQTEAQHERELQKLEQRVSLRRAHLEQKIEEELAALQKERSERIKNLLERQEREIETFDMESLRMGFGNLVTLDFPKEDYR

[14] = molecular target: Death-associated protein kinase 2 (Homo sapiens) (UniProt Q9UIK4)
[15] = molecular target: Serine/threonine-protein kinase DCLK2 (Homo sapiens) (UniProt Q8N568)
[16] = molecular target: Tyrosine-protein kinase Fyn (Homo sapiens) (UniProt P06241)
Tyrosine-protein kinase Fyn (Homo sapiens), sequence (P06241 2-537 limits assumed): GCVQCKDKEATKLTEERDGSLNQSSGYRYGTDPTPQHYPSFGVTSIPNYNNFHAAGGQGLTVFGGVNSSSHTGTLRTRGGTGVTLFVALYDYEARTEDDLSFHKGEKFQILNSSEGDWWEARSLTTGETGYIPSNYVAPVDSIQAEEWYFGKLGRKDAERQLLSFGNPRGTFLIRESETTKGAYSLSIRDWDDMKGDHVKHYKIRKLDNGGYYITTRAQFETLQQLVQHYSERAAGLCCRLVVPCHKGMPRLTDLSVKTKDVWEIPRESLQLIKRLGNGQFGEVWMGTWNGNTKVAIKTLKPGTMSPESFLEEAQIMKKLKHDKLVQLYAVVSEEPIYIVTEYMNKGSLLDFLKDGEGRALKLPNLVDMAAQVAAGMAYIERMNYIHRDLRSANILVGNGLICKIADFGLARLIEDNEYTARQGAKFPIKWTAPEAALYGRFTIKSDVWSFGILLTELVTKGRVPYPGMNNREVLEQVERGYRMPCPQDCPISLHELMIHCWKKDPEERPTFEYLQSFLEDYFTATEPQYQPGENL

Ribosomal protein S6 kinase beta-1 (Homo sapiens), sequence (P23443 whole entry, looked up): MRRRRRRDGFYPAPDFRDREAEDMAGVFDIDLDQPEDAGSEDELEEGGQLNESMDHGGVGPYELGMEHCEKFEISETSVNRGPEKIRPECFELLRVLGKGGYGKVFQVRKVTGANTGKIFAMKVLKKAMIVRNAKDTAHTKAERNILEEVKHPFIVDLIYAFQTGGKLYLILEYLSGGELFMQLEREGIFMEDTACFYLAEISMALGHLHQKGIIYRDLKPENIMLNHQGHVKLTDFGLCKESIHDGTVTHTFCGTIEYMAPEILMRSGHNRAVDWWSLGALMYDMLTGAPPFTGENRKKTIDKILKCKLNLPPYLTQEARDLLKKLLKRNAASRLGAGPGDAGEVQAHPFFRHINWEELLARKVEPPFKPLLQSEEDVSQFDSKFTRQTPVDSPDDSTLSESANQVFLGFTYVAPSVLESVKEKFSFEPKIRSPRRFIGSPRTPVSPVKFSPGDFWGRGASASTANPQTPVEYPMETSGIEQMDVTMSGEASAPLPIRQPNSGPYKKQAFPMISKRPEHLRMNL
RAC-gamma serine/threonine-protein kinase (Homo sapiens), sequence (Q9Y243 whole entry): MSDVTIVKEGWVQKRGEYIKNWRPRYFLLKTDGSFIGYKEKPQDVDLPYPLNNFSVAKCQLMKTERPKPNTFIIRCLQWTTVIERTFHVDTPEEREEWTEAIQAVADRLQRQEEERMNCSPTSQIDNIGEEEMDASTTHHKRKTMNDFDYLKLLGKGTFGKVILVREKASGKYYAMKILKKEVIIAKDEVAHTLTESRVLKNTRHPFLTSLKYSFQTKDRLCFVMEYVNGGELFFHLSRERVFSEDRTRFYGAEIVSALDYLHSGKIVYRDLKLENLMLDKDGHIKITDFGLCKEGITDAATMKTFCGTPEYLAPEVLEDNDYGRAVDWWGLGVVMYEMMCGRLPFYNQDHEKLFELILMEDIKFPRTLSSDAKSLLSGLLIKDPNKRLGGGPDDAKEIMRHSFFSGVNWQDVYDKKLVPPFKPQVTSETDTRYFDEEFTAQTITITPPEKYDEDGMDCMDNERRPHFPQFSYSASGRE
Receptor-interacting serine/threonine-protein kinase 1 (Homo sapiens), sequence (Q13546 whole entry): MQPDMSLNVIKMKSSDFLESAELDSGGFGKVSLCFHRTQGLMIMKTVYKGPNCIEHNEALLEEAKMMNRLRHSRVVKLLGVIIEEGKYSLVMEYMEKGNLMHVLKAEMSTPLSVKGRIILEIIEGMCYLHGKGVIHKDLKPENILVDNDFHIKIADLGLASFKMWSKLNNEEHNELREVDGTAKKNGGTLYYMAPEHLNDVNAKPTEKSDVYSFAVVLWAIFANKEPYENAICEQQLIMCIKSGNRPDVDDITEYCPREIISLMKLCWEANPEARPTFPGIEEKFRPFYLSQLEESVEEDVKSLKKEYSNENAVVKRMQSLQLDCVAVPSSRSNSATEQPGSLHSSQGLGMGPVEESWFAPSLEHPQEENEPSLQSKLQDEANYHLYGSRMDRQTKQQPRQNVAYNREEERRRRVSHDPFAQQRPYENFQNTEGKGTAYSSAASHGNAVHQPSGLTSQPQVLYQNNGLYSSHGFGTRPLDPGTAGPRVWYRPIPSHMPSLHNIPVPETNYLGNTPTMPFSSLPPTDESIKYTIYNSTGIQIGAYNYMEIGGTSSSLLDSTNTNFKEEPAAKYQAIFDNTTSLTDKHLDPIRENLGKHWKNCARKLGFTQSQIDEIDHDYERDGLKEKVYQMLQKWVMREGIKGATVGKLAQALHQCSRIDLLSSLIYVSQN
Serine/threonine-protein kinase SIK3 (Homo sapiens), sequence (Q9Y2K2 whole entry, looked up): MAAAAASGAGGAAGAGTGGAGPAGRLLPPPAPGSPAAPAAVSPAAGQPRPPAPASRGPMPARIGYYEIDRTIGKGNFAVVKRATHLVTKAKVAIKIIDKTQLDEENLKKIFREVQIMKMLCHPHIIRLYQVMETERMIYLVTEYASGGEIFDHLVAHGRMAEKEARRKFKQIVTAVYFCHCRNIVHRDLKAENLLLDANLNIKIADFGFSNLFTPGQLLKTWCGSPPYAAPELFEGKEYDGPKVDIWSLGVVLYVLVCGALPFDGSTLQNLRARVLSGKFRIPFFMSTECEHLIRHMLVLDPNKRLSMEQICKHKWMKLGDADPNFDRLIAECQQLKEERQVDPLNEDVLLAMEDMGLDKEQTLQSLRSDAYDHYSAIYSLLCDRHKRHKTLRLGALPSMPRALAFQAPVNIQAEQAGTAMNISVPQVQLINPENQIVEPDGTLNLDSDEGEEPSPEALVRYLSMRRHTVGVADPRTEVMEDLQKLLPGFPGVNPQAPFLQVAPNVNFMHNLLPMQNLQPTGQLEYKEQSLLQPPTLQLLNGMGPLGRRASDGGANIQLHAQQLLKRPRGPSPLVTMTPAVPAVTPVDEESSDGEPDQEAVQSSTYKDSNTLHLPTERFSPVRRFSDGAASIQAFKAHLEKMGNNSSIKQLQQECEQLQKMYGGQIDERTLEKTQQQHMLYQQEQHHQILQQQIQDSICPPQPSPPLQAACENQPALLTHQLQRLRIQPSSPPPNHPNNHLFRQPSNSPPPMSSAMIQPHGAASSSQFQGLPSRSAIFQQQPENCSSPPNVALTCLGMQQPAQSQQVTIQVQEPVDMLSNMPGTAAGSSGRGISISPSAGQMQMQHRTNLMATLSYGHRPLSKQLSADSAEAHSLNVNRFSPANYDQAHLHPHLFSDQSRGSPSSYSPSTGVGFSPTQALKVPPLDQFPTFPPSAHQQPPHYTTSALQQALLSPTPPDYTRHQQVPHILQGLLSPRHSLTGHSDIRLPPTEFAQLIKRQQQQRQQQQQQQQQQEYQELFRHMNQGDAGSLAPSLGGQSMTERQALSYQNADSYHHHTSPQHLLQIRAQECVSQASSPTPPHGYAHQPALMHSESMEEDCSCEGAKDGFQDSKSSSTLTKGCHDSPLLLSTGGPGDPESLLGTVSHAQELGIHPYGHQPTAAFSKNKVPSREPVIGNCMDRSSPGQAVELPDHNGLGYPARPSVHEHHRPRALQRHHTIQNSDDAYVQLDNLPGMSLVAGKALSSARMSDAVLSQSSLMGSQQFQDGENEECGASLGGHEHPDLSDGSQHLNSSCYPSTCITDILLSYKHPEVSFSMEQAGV
Death-associated protein kinase 2 (Homo sapiens), sequence (Q9UIK4 whole entry, looked up): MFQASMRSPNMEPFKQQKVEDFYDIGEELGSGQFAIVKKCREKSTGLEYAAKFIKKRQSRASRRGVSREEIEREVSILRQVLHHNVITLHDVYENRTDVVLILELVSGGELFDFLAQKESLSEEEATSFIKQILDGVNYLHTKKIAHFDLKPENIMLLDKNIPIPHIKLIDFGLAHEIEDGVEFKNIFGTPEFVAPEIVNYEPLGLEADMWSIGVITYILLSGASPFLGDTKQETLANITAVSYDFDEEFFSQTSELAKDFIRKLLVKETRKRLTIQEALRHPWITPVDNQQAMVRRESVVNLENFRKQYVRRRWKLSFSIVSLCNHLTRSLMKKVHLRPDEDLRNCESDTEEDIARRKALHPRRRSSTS
Mitogen-activated protein kinase kinase kinase 20 (Homo sapiens), sequence (Q9NYL2 2-800 limits assumed): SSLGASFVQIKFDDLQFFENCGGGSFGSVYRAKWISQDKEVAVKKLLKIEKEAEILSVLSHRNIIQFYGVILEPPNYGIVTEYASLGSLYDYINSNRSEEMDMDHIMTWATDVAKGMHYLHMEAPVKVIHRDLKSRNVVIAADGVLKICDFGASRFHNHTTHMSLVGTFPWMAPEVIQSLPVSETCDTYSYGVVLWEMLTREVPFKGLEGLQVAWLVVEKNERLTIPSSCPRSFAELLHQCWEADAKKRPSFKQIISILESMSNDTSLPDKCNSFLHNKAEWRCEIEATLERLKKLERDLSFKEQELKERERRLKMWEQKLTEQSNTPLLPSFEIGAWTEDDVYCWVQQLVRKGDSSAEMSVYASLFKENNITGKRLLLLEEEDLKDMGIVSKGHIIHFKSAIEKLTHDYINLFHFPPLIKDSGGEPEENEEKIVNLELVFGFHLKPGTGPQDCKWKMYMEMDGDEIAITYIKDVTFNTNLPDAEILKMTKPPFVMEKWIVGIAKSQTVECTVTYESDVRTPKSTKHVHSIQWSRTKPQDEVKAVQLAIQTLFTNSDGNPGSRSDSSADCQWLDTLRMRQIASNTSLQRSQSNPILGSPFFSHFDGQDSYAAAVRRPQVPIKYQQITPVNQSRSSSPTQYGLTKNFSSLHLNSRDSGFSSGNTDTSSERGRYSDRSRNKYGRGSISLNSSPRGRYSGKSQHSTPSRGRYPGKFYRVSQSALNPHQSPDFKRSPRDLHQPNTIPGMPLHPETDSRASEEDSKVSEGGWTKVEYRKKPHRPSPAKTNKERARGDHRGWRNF

SMILES	residual activity [1]	residual activity [2]	residual activity [3]	residual activity [4]	residual activity [5]	residual activity [6]	residual activity [7]	residual activity [8]	residual activity [9]	residual activity [10]	residual activity [11]	residual activity [12]	residual activity [13]	residual activity [14]	residual activity [15]	residual activity [16]
CC1=C(C#N)C(c2ccc3c(c2)c(NC(=O)c2ccccc2C)nn3C)C(C#N)=C(C)N1 [BAY-974]	100%	94%	100%	80%	88%	100%	90%	74%	93%	91%	81%	95%	80%	98%	100%	100%
CCc1ccccc1C(=O)Nc1n[nH]c2c(C)c(F)c(C3C(C#N)=C(C)N(C)C(C)=C3C#N)cc12 [BAY-3827]	100%	95%	2.9%	100%	100%	90%	100%	80%	100%	1%	74%	100%	38%	63%	64%	100%
